Common to all, as to assay: biochemical
Holding throughout (set-up): in vitro kinase selectivity panel, protein and lipid kinases, single concentration, ATP at Km
Holding throughout (settings): ATP at Km

The target in experiment [1] is CHKA (Homo sapiens, UniProt P35790). The procedure, abridged:
(§1)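 Single-point screen against a protein and lipid kinase panel: inhibitor at 1 μM. ATP concentration for every kinase equivalent to its Km.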

In experiment [2] the target is T1, PKD (PKD1) (Homo sapiens, UniProt Q15139).
T1 construct: gene PRKD1
The essentials: as §1

In experiment [3] the target is T2, ROCK-II(h) (Homo sapiens, UniProt O75116).
T2 construct: gene ROCK2
The essentials:
as §1

The target of experiment [4] is T3, PKBα(h) (Homo sapiens, UniProt P31749).
T3 construct: gene AKT1
The procedure, abridged: as §1

Experiment [5] deals with T4, PKCι(h) (Homo sapiens, UniProt P41743).
T4 construct: gene PRKCI
The essentials: as §1

For experiment [6], the target named is T5, Yes(h) (Homo sapiens, UniProt P07947).
T5 construct: gene YES1
The essentials:
as §1

In experiment [7] the target is Ret(h) (Homo sapiens, UniProt P07949). The essentials:
as §1

The target of experiment [8] is Flt3(D835Y)(h) (Homo sapiens, UniProt P36888, D835Y). The essentials: as §1
The target in experiment [9] is T6, Rsk1(h) (Homo sapiens, UniProt Q15418).
T6 construct: gene RPS6KA1
The essentials: as §1

Experiment [10] deals with T7, CK1γ3(h) (Homo sapiens, UniProt Q9Y6M4).
T7 construct: gene CSNK1G3
The essentials: as §1

The target in experiment [11] is T8, PDGFRα(h) (Homo sapiens, UniProt P16234).
T8 construct: gene PDGFRA
The essentials: as §1

Experiment [12] concerns the target KDR(h) (Homo sapiens, UniProt P35968). The procedure, abridged: as §1
The target of experiment [13] is T9, PKCβI(h) (Homo sapiens, UniProt P05771).
T9 construct: gene PRKCB; isoform beta I
The essentials:
as §1

Experiment [14] deals with T10, Tie2 (h) (Homo sapiens, UniProt Q02763).
T10 construct: gene TEK
The essentials: as §1

The target of experiment [15] is DDR2(h) (Homo sapiens, UniProt Q16832). The procedure, abridged:
as §1

For experiment [16], the target named is ALK(h) (Homo sapiens, UniProt Q9UM73). The essentials:
as §1

Experiment [17] has as its target T11, MAPK2(h) (Homo sapiens, UniProt P28482).
T11 construct: gene MAPK1
The essentials: as §1

The target in experiment [18] is PI4K2A (Homo sapiens, UniProt Q9BTU6). The essentials: as §1
PI4K2A, sequence (Q9BTU6 whole entry): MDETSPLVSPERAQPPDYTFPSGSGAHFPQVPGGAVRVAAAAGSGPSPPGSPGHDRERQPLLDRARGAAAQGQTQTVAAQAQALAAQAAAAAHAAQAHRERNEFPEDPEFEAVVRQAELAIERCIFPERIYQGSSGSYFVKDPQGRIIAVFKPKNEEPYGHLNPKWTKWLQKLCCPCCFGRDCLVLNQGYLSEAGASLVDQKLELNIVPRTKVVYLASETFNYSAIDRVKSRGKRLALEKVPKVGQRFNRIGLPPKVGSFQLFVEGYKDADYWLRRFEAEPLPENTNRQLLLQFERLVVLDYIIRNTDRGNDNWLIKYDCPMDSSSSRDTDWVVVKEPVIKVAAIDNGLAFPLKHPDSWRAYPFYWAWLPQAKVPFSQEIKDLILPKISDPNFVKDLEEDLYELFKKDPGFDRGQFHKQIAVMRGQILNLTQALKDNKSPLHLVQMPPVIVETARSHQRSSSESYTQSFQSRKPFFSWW

T11 sequence (P28482 whole entry): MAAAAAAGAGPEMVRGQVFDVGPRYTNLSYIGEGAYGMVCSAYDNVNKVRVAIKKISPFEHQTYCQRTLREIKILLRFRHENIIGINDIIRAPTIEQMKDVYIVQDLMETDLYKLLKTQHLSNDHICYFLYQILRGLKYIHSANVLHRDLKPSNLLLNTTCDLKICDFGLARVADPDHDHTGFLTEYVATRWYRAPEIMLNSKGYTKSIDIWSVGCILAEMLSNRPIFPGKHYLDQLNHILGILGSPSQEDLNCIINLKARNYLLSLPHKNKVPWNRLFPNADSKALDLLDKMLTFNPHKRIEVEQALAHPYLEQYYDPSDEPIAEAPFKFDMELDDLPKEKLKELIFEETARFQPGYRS
T9 sequence (P05771 whole entry, canonical isoform): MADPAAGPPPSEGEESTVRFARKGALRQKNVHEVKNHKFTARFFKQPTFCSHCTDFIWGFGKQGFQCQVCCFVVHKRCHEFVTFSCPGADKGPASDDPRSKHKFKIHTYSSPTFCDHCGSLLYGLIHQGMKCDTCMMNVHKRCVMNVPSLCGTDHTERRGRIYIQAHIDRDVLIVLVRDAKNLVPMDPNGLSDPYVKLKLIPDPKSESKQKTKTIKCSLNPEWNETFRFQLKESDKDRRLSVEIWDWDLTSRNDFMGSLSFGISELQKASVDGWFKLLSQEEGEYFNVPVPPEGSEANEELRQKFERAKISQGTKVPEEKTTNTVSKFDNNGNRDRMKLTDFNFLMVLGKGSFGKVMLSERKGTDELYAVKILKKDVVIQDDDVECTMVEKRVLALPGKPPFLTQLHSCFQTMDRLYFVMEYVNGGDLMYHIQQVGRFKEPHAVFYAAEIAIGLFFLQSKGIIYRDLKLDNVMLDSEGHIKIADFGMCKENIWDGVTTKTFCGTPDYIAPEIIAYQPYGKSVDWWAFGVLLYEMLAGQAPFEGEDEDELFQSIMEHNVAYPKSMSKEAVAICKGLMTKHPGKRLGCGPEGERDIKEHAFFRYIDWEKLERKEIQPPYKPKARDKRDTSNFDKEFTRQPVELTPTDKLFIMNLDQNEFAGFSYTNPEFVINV
KDR(h), sequence (P35968 whole entry): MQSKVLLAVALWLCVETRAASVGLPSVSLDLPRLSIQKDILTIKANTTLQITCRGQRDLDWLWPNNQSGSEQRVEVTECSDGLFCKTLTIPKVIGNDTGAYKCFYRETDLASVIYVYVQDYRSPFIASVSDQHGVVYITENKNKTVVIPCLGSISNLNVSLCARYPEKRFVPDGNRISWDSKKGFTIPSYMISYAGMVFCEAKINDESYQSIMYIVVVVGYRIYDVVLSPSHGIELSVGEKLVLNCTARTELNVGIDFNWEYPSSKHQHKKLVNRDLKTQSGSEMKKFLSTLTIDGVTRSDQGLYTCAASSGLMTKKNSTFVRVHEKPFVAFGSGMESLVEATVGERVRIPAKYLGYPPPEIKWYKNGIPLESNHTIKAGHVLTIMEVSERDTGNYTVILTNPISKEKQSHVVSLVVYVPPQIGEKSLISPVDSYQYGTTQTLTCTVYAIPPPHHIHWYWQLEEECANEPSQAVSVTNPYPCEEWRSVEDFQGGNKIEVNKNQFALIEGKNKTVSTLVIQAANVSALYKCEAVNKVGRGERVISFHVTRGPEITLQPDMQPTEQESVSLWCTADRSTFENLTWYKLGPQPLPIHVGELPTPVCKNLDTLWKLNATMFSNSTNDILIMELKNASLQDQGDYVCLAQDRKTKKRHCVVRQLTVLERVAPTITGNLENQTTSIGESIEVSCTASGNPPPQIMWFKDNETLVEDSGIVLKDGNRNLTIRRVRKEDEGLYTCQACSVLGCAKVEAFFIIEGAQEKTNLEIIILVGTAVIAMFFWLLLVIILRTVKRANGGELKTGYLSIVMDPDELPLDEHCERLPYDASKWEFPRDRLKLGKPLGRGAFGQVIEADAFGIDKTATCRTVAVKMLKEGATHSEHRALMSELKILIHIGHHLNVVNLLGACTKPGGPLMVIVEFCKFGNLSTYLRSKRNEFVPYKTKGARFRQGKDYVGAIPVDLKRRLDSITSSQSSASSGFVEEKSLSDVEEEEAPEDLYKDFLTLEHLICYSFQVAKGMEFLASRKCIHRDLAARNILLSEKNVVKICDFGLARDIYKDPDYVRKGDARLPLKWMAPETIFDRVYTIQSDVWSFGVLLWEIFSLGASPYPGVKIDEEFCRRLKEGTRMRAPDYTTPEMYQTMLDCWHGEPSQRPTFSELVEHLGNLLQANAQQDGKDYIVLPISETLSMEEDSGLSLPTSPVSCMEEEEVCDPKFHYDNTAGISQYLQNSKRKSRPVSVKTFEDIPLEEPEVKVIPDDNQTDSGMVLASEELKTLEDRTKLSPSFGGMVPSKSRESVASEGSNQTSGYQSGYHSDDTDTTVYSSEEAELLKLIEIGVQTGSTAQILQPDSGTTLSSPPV
T2 sequence (O75116 whole entry): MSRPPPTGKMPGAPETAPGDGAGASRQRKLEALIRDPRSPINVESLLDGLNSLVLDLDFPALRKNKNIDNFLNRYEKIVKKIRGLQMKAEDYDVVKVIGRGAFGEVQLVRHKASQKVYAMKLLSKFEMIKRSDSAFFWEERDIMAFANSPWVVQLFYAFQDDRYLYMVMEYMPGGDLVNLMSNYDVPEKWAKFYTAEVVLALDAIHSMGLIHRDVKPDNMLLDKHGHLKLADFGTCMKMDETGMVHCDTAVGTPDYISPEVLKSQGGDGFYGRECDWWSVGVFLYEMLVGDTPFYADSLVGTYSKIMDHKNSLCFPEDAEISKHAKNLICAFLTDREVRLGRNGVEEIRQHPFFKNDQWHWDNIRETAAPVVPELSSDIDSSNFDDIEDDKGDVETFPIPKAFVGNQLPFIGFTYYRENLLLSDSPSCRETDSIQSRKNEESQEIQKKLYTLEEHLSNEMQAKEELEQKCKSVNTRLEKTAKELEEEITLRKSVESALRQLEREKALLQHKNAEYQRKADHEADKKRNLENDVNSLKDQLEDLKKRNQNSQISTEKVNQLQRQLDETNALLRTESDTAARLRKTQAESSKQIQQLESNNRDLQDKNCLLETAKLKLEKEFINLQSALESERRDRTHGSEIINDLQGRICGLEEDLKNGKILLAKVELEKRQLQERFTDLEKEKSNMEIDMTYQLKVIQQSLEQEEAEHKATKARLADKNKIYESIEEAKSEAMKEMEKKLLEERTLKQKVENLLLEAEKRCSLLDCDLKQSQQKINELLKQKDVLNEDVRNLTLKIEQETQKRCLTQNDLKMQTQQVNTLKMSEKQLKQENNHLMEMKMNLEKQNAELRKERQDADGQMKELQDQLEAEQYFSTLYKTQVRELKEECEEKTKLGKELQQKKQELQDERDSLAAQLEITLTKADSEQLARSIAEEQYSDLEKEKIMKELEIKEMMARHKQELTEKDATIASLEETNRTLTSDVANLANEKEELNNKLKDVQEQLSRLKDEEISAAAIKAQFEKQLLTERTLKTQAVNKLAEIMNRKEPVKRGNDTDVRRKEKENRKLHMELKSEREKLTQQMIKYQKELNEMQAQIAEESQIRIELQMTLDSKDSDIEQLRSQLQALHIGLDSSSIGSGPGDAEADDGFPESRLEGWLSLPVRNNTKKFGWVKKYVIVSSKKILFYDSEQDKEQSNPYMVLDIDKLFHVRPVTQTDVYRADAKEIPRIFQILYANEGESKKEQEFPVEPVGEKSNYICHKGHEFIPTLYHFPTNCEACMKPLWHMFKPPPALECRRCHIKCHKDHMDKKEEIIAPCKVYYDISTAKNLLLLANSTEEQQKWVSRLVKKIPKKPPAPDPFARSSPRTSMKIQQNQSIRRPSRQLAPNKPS
T7 sequence (Q9Y6M4 whole entry): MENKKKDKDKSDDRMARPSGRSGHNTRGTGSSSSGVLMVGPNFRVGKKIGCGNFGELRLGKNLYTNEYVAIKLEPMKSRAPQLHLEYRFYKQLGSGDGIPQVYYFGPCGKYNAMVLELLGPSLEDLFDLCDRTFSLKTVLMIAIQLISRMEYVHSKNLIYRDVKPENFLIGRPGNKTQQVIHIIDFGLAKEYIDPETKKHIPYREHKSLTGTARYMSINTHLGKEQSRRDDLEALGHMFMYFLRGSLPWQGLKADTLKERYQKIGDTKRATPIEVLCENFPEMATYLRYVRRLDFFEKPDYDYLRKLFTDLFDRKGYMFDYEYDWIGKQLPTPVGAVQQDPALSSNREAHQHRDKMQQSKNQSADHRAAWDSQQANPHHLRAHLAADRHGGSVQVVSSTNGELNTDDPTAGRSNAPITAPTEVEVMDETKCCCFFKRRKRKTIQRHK

By inhibition is commonly meant the drop in the measured response relative to a control, in per cent. Take `CC[C@@H](N)CNc1ccnc(-c2cc(-c3cnn(C)c3)ccc2O)n1` [CRT0066101]: the inhibition at 1 µM in experiment [1] was 1%; in experiment [2], 98%; in experiment [3], 28%; in experiment [4] it was -6%; in experiment [5], 10%; in [6], 40%. Also, the inhibition at 1 µM was 0% in [7]; 80% in experiment [8]; 48% in experiment [9]; -3% in experiment [10]; 14% in [11]; 13% in experiment [12]. The inhibition at 1 µM in experiment [13] was 11%; in experiment [14], 4%; in experiment [15] it was -3%; in [16] it was 3%; in [17], -9%; in experiment [18], 4%.

These data come from publication PMC5391474, “Investigation of the Role of Protein Kinase D in Human Rhinovirus Replication” (Journal of Virology, 2017).
